The values below come from US20220160686A1, “MACROCYCLIC AZOLOPYRIDINE DERIVATIVES AS EED AND PRC2 MODULATORS” (Fulcrum Therapeutics, Inc., priority 2019, published 2022).

As a reminder, the IC50 is the concentration at which inhibition is half-maximal.

Some results are limits rather than exact numbers.

One data set has as its system human P-glycoprotein HEK cells (HEK-P-gp). Put plainly: H3K27me3 immunocytochemistry assay in P-gp expressing HEK293T cells, with or without elacridar. In kind it is cell-based.
Conditions: not given
As to the method: A plasmid encoding the human ABCB1 gene under the control of a CMV promoter was purchased from Origene (Cat #RC216080). The HEK293T cells were purchased from ATCC (Cat #CRL-3216) and were cultured for expansion in the recommended conditions. The HEK293T cells were transfected with 2 ug of the pCMV-ABCB1 plasmid using Lipofectamine 3000 following recommendations from the manufacturer (ThermoFisher Scientific, Cat #L3000008). After 24 h, cells were dissociated, and 5000 cells were seeded on a 10 cm tissue culture dish. On the next day, fresh media containing 5 nM Vinblastine (Sigma, Cat #V1377) was added, and media containing compound was replenished every 72 h. After surviving cells reached confluency, cells were passaged, and lines were maintained in the presence of 2.5 nM Vinblastine until further characterization.
P-gp expressing HEK293T, HUDEP2, and Human Mobilized Peripheral Blood Primary CD34+ cells were cultured for use in an H3K27me3 immunocytochemistry assay. HUDEP2 and Human Mobilized Peripheral Blood Primary CD34+ cells were cultured for use in an HbF immunocytochemistry assay. P-gp expressing HEK293T cells were maintained and passaged every 3-4 days by plating 300,000 viable cells in a T-25 culture flask containing 6 mLs of 293 Passaging Media comprised of DMEM (ThermoFisher #10566016), 10% fetal bovine serum (ThermoFisher #A3160502), 1% penicillin-streptomycin (ThermoFisher #15140122), and 2.5 nM Vinblastine (Sigma #V1377). To evaluate the inhibitory effect of the compounds of the present disclosure and their brain penetrant properties via P-gp mediated efflux, the H3K27me3 immunocytochemistry assay was conducted in the presence or absence of 250 nM of the P-gp inhibitor, elacridar. Poor brain penetrant compounds were expected to show higher potencies in the presence of Elacridar. However, brain penetrant compounds would show similar potencies irrespective of whether Elacridar is present or not. In these experiments plates without elacridar were seeded with P-gp expressing HEK293T cells at 1000 viable cells per well in a poly-d-lysine coated 384-well plate (Corning Cat #356697) in 45 μL of 293 Assay Media comprised of DMEM (ThermoFisher #10566016), 10% fetal bovine serum (ThermoFisher #A3160502), 1% penicillin-streptomycin (ThermoFisher #15140122). A replicate set of plates were seeded under the same conditions with 45 μL of 293 Assay Media supplemented with 250 nM of Elacridar to inhibit P-gp activity. Compounds were serially diluted at 10× concentration in 293 Media, and 5 μL transferred to their respective wells on both sets of plates for a total volume of 50 μL per well. The compound treated HEK293T cells were allowed to incubate for 4 days at 37° C., 85% relative humidity, and 5% CO2 before proceeding to ICC Fix and Stain protocol.
The Fix and Stain Protocol was the same for HEK293T, HUDEP2, and Primary CD34+ cell assays except the specific primary and secondary antibodies used for detection. Following 4 days of compound treatment, the respective plates were washed once with 25 μL of PBS (ThermoFisher #10010023) and fixed with 25 μL of 4% paraformaldehyde (ThermoFisher #28908) for 10 minutes at room temperature. The plates were then washed three times with 25 μL of PBS. Subsequent to that, the cells were permeabilized and blocked for 1 hour at room temperature in 25 μL of Perm/Block buffer comprised of IX PBS, 1% bovine serum albumin (ThermoFisher #A3294), 10% fetal bovine serum (ThermoFisher #A3160502), 0.3M glycine (Sigma #G7126), and 0.1% tween-20 (Sigma #P7949). This was followed by additional washing (three times) of the plates with 25 μL of 0.1% tween in PBS.
For the H3K27me3 assay, the cells were incubated overnight at 4° C. with 25 μL of H3K27me3 Primary Antibody (Cell Signaling #9733) diluted 1:200 in 0.1% tween-20 in PBS. […]
Consider “(S)-12-fluoro-4-(2-methylpyridin-3-yl)-7a,8,13,14-tetrahydro-7H-[1,2,4]triazolo[4′,3′:1,6]pyrido[3,2-b]benzofuro[4,3-fg][1,4]oxazonine [Compound 8]”, for which the IC50 was < 25 nM.

For the compound “(S)-1-(4-(12-fluoro-7a,8,13,14-tetrahydro-7H-[1,2,4]triazolo[4′,3′:1,6]pyrido[3,2-b]benzofuro[4,3-fg][1,4]oxazonin-4-yl)piperidin-1-yl)ethan-1-one [Compound 9]”, the IC50 was > 500 nM.

As for `Cc1nc(-c2cc3c(n4cnnc24)NCc2c(F)ccc4c2[C@@H](CO4)CO3)ccc1C(F)F` [Example 77, (S)-4-(5-(difluoromethyl)-6-methylpyridin-2-yl)-12-fluoro-7a,8,13,14-tetrahydro-7H-[1,2,4]triazolo[4′,3′:1,6]pyrido[3,2-b]benzofuro[4,3-fg][1,4]oxazonine], the IC50 lay in the range of 100 to 500 nM.

Take `COc1cc(C)c(-c2cc3c(n4cnnc24)NCc2c(F)ccc4c2[C@@H](CO4)CO3)cn1` [Example 68, (S)-12-fluoro-4-(6-methoxy-4-methylpyridin-3-yl)-7a,8,13,14-tetrahydro-7H-[1,2,4]triazolo[4′,3′:1,6]pyrido[3,2-b]benzofuro[4,3-fg][1,4]oxazonine]: the IC50 was 50 to 100 nM.

Consider `CN(C)C(=O)c1ccc(-c2cc3c(n4cnnc24)NCc2c(F)ccc4c2[C@@H](CO4)CO3)cn1` [Example 152, (S)-5-(12-fluoro-7a,8,13,14-tetrahydro-7H-[1,2,4]triazolo[4′,3′:1,6]pyrido[3,2-b]benzofuro[4,3-fg][1,4]oxazonin-4-yl)-N,N-dimethylpicolinamide], for which the IC50 is < 25 nM.

In turn, `Cn1cnc(-c2cc3c(n4cnnc24)NCc2c(F)ccc4c2[C@@H](CO4)CO3)c1` [Example 94, (S)-12-fluoro-4-(1-methyl-1H-imidazol-4-yl)-7a,8,13,14-tetrahydro-7H-[1,2,4]triazolo[4′,3′:1,6]pyrido[3,2-b]benzofuro[4,3-fg][1,4]oxazonine] registered an IC50 of 25 to 50 nM.

Take `COc1nccc(C)c1-c1cc2c(n3cnnc13)NCc1c(F)ccc3c1[C@@H](CO3)CO2` [Example 71, (S)-12-fluoro-4-(2-methoxy-4-methylpyridin-3-yl)-7a,8,13,14-tetrahydro-7H-[1,2,4]triazolo[4′,3′:1,6]pyrido[3,2-b]benzofuro[4,3-fg][1,4]oxazonine]: the IC50 is < 25 nM.

Regarding `Cn1cc(-c2cc3c(n4cnnc24)NCc2c(F)ccc4c2[C@@H](CO4)CO3)ccc1=O` [Example 69, (S)-5-(12-fluoro-7a,8,13,14-tetrahydro-7H-[1,2,4]triazolo[4′,3′:1,6]pyrido[3,2-b]benzofuro[4,3-fg][1,4]oxazonin-4-yl)-1-methylpyridin-2(1H)-one], the IC50 was < 25 nM.

For `Cc1nccc(-c2cc3c(n4cnnc24)NCc2c(F)ccc4c2[C@@H](CO4)CO3)c1F` [Example 86, (S)-12-fluoro-4-(3-fluoro-2-methylpyridin-4-yl)-7a,8,13,14-tetrahydro-7H-[1,2,4]triazolo[4′,3′:1,6]pyrido[3,2-b]benzofuro[4,3-fg][1,4]oxazonine], the IC50 lay within 25 to 50 nM.

Regarding `CN(C)c1cc(-c2cc3c(n4cnnc24)NCc2c(F)ccc4c2[C@@H](CO4)CO3)n(C)n1` [Example 91, (S)-5-(12-fluoro-7a,8,13,14-tetrahydro-7H-[1,2,4]triazolo[4′,3′:1,6]pyrido[3,2-b]benzofuro[4,3-fg][1,4]oxazonin-4-yl)-N,N,1-trimethyl-1H-pyrazol-3-amine], the IC50 lay in the range of 100 to 500 nM.

Regarding `Cc1cc(C)c(-c2cc3c(n4cnnc24)NCc2c(F)ccc4c2[C@@H](CO4)CO3)cn1` [Example 96, (S)-4-(4,6-dimethylpyridin-3-yl)-12-fluoro-7a,8,13,14-tetrahydro-7H-[1,2,4]triazolo[4′,3′:1,6]pyrido[3,2-b]benzofuro[4,3-fg][1,4]oxazonine], the IC50 was 50 to 100 nM.

The compound `Fc1ccc2c3c1CNc1c(cc(-c4ccnn4CC(F)(F)F)c4nncn14)OC[C@@H]3CO2` [Example 72, (S)-12-fluoro-4-(1-(2,2,2-trifluoroethyl)-1H-pyrazol-5-yl)-7a,8,13,14-tetrahydro-7H-[1,2,4]triazolo[4′,3′:1,6]pyrido[3,2-b]benzofuro[4,3-fg][1,4]oxazonine] had an IC50 of 50 to 100 nM.

The same data set, now with this note: Homo sapiens, HEK293, 96 h, without elacridar; 4 days compound treatment; read-out: IC50, inhibitory activity on human P-glycoprotein HEK cells (HEK-P-gp).
For the compound `Cc1ncc(-c2cc3c(n4cnnc24)NCc2c(F)cccc2COC3)c(C)n1` [Compound 182, 4-(2,4-dimethylpyrimidin-5-yl)-12-fluoro-6,8,13,14-tetrahydro-[1,2,4]triazolo[4′,3′:1,6]pyrido[3,2-c]benzo[g][1,5]oxazonine], the IC50 is > 500 nM.

With `COC(=O)N1CCC(c2cc3c(n4cnnc24)NCc2c(F)cccc2COC3)CC1` [Compound 181, methyl 4-(12-fluoro-6,8,13,14-tetrahydro-[1,2,4]triazolo[4′,3′:1,6]pyrido[3,2-c]benzo[g][1,5]oxazonin-4-yl)piperidine-1-carboxylate], the IC50 was > 500 nM.

Turning to `Cn1cc(Cc2cc3c(n4cnnc24)NCc2c(F)cccc2COC3)cn1` [Compound 183, 12-fluoro-4-((1-methyl-1H-pyrazol-4-yl)methyl)-6,8,13,14-tetrahydro-[1,2,4]triazolo[4′,3′:1,6]pyrido[3,2-c]benzo[g][1,5]oxazonine], the IC50 was > 500 nM.

Still in this data set, the particulars now being: Homo sapiens, HEK293, with 250 nM elacridar; 4 days compound treatment; read-out: IC50, inhibitory activity on human P-glycoprotein HEK cells (HEK-P-gp) pretreated with elacridar.
On to `Cc1ncc(-c2cc3c(n4cnnc24)NCc2c(F)cccc2COC3)c(C)n1` [Compound 182, 4-(2,4-dimethylpyrimidin-5-yl)-12-fluoro-6,8,13,14-tetrahydro-[1,2,4]triazolo[4′,3′:1,6]pyrido[3,2-c]benzo[g][1,5]oxazonine], for which the IC50 was > 500 nM.

Consider `COC(=O)N1CCC(c2cc3c(n4cnnc24)NCc2c(F)cccc2COC3)CC1` [Compound 181, methyl 4-(12-fluoro-6,8,13,14-tetrahydro-[1,2,4]triazolo[4′,3′:1,6]pyrido[3,2-c]benzo[g][1,5]oxazonin-4-yl)piperidine-1-carboxylate], for which the IC50 is > 500 nM.

Turning to `Cn1cc(Cc2cc3c(n4cnnc24)NCc2c(F)cccc2COC3)cn1` [Compound 183, 12-fluoro-4-((1-methyl-1H-pyrazol-4-yl)methyl)-6,8,13,14-tetrahydro-[1,2,4]triazolo[4′,3′:1,6]pyrido[3,2-c]benzo[g][1,5]oxazonine], the IC50 is > 500 nM.
